The record followed here is paper PMC12195250, “Synthesis, Biological Evaluation, Molecular Dynamics, and QM-MM Calculation of Spiro-Acridine Derivatives Against Leishmaniasis” (Microorganisms, 2025).

Data set [1] concerns L. amazonensis promastigotes (Strain MHOM/BR/PH8). The data set is described as follows: Anti-promastigote effect, Neubauer chamber counting. It is filed as cell-based, Leishmania amazonensis. The conditions noted are these: 72 h incubation, read-out: L. amazonensis IC50PRO. The protocol: The promastigote cultures of L. infantum (Strain MHOM/BR/70/BH46) and L. amazonensis (Strain MHOM/BR/PH8) were kept in Schneider medium (Sigma-Aldrich, St. Louis, MO, USA) supplemented with 20% fetal bovine serum (FBS) and 1% streptomycin/penicillin in a B.O.D. incubator (J. Prolab, model JP. 100 LBCM/CPAM) at 26 °C. The promastigote strains were used in the exponential growth phase in all stages for experimental purposes.
The Neubauer chamber method was used to assess the inhibitory concentrations of the synthesized spiro-acridines capable of eliminating 50% of the promastigotes in cultures of L. amazonensis and L. infantum (IC50) strains. Promastigotes from both species were collected, counted, and diluted in Schneider’s medium (Sigma-Aldrich, St. Louis, MO, USA) supplemented with 20% fetal bovine serum (FBS) at a final concentration of 1 × 10^6 cells/mL. The evaluated promastigotes were then exposed to different concentrations of the tested compounds (10, 5, 2.5, 1.25, and 0.625 μg/mL). The positive control used the commercial drug Amphotericin B®, while the negative control consisted of promastigotes incubated in Schneider’s medium alone. After 72 h of incubation at 25 °C, culture growth was observed by counting the viable cells using a Neubauer chamber and calculated using the following Equation (1): No. Leishmania/mL = No. of cells counted × No. of Neubauer chamber(1) quadrants × the dilution used × 10^4 (Neubauer chamber correction factor)
The concentration parameter that inhibits 50% of parasite growth (IC50) was used to estimate the growth inhibition of the promastigote species of Leishmania sp. Thus, IC50 was determined by linear regression analysis with SPSS 8.0 software for Windows. Each test was performed in two independent experiments, with different cultures and in technical triplicate.

The subject of data set [2] is human red blood peripheral cells (O+). The data set is described as follows: Hemocompatibility (hemolysis) in red blood cells. It is filed as cell-based. As to conditions: 1 h at 37 °C. Here is the method:
The hemocompatibility of the spiro-acridine derivatives was determined using human red blood peripheral cells (O+) from healthy adults. The erythrocytes were diluted in phosphate-buffered saline (PBS) to a concentration of 5% in an 80 µL suspension and subsequently incubated with 20 µL of different concentrations of spiro-acridine derivatives and Amphotericin B® (400, 200, 100, 50, 25, 12,5, 6,25 and 3,12 μg/mL). Afterward, the samples were incubated for 1 h at 37 °C in a B.O.D incubator, and the reaction was stopped by adding 200 μL of PBS (1.5 mM KH2PO4, 8.1 mM Na2HPO4, 136.9 mM NaCl, and 2.6 mM KCl, pH 7.2). The samples were centrifuged at 2000 rpm for 10 min, at room temperature. The supernatants were collected and subjected to spectrophotometry using a spectrophotometer (model Biosystems ELx800, Curitiba, PR, Brazil) at 540 nm. The hemolysis percentage was determined as [(Abssam − Abscon)/(Abstot − Abscon) × 100], where Abssam refers to the absorbance of the sample, Abscon to the absorbance of the blank control (without compounds), and Abstot to the absorbance of total hemolysis (obtained by replacing the sample solution with an equal volume of Milli-Q water). The results were expressed as average hemolytic concentration (HC50), considering the positive control as 100% hemolysis.

Data set [3] concerns J774A.1 macrophages. Put plainly: Cytotoxic effect in J774 macrophage cultures, MTT. It is filed as cell-based. As to conditions: read-out: CC50 (50% cytotoxic concentration in J774 macrophage). Here is the method: J774A.1 macrophages (ATCC TIB-67) were kept cryopreserved in a Falcon tube containing 5 mL of DMEM (Dulbecco’s modified Eagle medium) culture medium (Gibco®), supplemented with 10% inactivated fetal bovine serum, 1% non-essential amino acids, and 1% gentamicin sulfate. The tube was centrifuged at 200 rpm for 10 min. Afterward, the supernatant was discarded, and the cells were resuspended in the culture medium and transferred to a culture bottle kept in an incubator at 37 °C with 5% CO2. The assays were carried out in triplicate using a 96-well plate to evaluate the cytotoxic effect of the selected spiro-acridine compounds on J774 macrophage cultures. The compounds were diluted and seeded at predetermined concentrations (32, 16, 8, 4, and 2 μg/mL), parallel to the distribution of 1.0 × 10^5 J774 macrophages per well. The plate was incubated for two hours in a 5% CO2 incubator at 37 °C. Only the cells were incubated in the negative control without the tested molecules. In contrast, the positive control was performed by incubating the macrophages with the commercial drug Amphotericin B®. Later, 10 μL of the MTT reagent was added per well, and the cultures were re-incubated for 4 h. Finally, 50 μL of DMSO was added to each well, and the absorbance was read on a SpectraMAX GeminiXS plate spectrophotometer (Molecular Devices LLC, San Jose, CA, USA) at a wavelength of 570 nm. […]

Read-outs that look alike come from different tables or passages of the source.

For the molecule `N#CC1=CC2(c3ccccc3Nc3ccccc32)N(c2ccc(Cl)cc2)C1=O` [ACMD-03, (E)1′-(4-chlorophenyl)-5′-oxo-1′, 5′-dihydro-10H-spiro{acridine-9,2′-pyrrole]-4′-carbonitrile], in data set [1], the IC50 is 11 µM. The “HC50 (concentration capable of promoting 50% hemolysis)” value in data set [2] is over 400 µM. Further, the CC50 in data set [3] stood at 27.2 µM.
Regarding `COc1ccc(/C=N/N2C(=O)C(C#N)=CC23c2ccccc2Nc2ccccc23)cc1` [AMTAC-02, (E)-1′-((4-methoxybenzylidene)amino)-5′-oxo-1′,5′-dihydro-10H-spiro[acridine-9,2′-pyrrole]-4′-carbonitrile], in data set [1] (Leishmania amazonensis), the IC50 was found to be 0.73 µM. Besides, the “HC50 (concentration capable of promoting 50% hemolysis)” value in data set [2] was over 400 µM.
